{"source": "ChEMBL document CHEMBL1153520", "about": "“A multivalent approach to the design and discovery of orally efficacious 5-HT4 receptor agonists” (J Med Chem, 2009)", "key": {"[1]": {"target": "T1, 5-hydroxytryptamine receptor 4 (Homo sapiens, UniProt Q13639)", "T1 sequence (Q13639 whole entry)": "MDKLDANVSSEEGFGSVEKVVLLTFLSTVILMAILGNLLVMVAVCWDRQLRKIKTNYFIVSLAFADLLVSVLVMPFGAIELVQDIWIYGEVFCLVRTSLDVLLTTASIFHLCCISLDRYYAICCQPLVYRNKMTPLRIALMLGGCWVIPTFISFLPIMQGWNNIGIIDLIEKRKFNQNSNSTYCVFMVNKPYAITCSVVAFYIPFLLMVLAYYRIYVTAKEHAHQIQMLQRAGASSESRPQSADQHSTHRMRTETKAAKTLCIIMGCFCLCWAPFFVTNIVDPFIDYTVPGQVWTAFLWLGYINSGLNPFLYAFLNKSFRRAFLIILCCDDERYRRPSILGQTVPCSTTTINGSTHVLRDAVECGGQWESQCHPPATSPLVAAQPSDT", "experiment": "Displacement of [H]GR-113808 from human 5HT4C receptor expressed in HEK293 cells by liquid scintillation counting", "assay_type": "cell-based"}, "Homo sapiens": {"species": "Homo sapiens", "experiment": "Selectivity ratio of Ki for human 5HT3A receptor to Ki for human 5HT4C receptor"}, "[2]": {"target": "T1, 5-hydroxytryptamine receptor 4", "experiment": "Agonist activity at human 5HT4C receptor expressed in HEK293 cells assessed as accumulation of cAMP by flash plate adenylyl cyclase activation assay", "assay_type": "functional, cell-based"}, "[3]": {"target": "T1, 5-hydroxytryptamine receptor 4", "experiment": "Intrinsic activity at human 5HT4C receptor expressed in HEK293 cells assessed as accumulation of cAMP by flash plate adenylyl cyclase activation assay relative to serotonin", "assay_type": "functional, cell-based"}, "hERG (KCNH2)": {"target": "hERG (KCNH2) (Homo sapiens, UniProt Q12809)", "sequence (Q12809 whole entry)": "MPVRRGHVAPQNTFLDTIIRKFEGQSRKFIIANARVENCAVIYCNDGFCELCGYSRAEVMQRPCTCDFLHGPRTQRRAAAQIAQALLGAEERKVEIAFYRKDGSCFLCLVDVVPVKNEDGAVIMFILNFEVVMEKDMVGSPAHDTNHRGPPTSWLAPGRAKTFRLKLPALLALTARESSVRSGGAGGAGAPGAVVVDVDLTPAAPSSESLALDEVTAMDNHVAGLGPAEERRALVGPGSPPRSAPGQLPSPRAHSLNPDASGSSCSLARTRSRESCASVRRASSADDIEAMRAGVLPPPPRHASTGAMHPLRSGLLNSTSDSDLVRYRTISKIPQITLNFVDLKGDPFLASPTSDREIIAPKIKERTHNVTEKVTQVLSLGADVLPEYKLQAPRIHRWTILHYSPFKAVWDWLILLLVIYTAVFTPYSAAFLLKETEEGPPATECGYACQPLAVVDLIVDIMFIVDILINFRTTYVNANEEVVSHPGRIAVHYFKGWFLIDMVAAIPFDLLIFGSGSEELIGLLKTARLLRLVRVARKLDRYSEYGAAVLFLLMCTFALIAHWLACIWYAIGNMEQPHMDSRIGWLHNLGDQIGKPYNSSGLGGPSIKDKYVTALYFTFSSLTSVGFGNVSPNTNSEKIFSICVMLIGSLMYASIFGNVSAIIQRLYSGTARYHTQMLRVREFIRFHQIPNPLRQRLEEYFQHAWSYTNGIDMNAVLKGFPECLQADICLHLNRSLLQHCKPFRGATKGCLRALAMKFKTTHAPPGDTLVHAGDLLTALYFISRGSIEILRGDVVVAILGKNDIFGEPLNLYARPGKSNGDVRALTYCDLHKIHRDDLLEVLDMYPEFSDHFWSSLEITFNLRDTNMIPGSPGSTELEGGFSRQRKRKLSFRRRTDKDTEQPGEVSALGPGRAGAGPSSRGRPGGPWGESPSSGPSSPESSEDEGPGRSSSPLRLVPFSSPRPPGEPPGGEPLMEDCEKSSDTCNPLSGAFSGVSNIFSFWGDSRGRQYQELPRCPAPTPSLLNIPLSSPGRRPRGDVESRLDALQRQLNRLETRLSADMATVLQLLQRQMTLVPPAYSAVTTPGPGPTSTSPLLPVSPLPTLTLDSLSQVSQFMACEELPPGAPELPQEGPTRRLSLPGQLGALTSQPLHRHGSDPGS", "experiment": "Inhibition of human ERG potassium channel expressed in CHO-K1 cells at 3 uM by whole cell voltage clamp assay", "assay_type": "cell-based", "conditions": "CHO-K1 cells expressing human ERG potassium channel"}, "[4]": {"experiment": "Permeability across human Caco-2 cells assessed as permeability coefficient", "assay_type": "ADME, cell-based", "conditions": "read-out: permeability"}, "[5]": {"experiment": "AUC (0 to t) in Sprague-Dawley rat at 5 mg/kg, po", "assay_type": "ADME, organism-based", "design": "dose 5 mg/kg, route oral", "conditions": "plasma"}, "[6]": {"experiment": "Cmax in Sprague-Dawley rat at 5 mg/kg, po", "assay_type": "ADME, organism-based", "design": "dose 5 mg/kg, route oral", "conditions": "in vivo"}, "[7]": {"experiment": "Half life in Sprague-Dawley rat at 5 mg/kg, po", "assay_type": "ADME, organism-based", "design": "dose 5 mg/kg, route oral", "conditions": "in vivo"}, "[8]": {"experiment": "Oral bioavailability in Sprague-Dawley rat at 5 mg/kg, po", "assay_type": "ADME, organism-based", "conditions": "in vivo"}, "[9]": {"experiment": "Cmax in Beagle dog at 2 mg/kg, po", "assay_type": "ADME, organism-based, Canis lupus familiaris", "design": "dose 2 mg/kg, route oral", "conditions": "in vivo"}, "[10]": {"experiment": "Oral bioavailability in Beagle dog at 2 mg/kg, po", "assay_type": "ADME, organism-based, Canis lupus familiaris", "conditions": "in vivo"}, "[11]": {"target": "T2, 5-hydroxytryptamine receptor 1A (Homo sapiens) (UniProt P08908)", "T2 sequence (whole entry)": "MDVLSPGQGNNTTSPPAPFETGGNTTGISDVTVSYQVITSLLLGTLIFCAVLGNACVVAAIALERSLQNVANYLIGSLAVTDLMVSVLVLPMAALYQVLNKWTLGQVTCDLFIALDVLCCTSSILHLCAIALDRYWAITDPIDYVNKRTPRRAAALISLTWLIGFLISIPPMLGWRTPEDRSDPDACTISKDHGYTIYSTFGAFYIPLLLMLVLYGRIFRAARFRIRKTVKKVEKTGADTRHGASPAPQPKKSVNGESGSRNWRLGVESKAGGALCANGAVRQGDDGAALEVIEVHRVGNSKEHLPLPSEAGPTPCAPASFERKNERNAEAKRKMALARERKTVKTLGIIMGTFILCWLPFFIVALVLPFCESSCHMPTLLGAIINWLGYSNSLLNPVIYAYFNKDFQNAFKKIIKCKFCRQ", "experiment": "Inhibition of 5HT1A receptor at 10 uM"}, "[12]": {"target": "T3, 5-hydroxytryptamine receptor 2C (Homo sapiens) (UniProt P28335)", "T3 sequence (whole entry)": "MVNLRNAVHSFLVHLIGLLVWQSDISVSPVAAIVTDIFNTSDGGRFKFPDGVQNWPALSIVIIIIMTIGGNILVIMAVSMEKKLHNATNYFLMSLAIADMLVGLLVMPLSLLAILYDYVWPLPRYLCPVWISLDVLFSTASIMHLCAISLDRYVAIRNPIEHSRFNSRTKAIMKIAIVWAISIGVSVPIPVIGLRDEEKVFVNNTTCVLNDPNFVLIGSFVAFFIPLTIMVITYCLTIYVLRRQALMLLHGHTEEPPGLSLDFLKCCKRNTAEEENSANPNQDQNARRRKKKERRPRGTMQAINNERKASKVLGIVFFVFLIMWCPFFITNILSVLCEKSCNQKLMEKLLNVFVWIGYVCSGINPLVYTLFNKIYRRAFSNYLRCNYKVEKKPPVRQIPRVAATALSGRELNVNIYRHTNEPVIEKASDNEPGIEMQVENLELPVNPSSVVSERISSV", "experiment": "Inhibition of 5HT1C receptor at 10 uM"}, "[13]": {"target": "5-hydroxytryptamine receptor 1D (Homo sapiens) (UniProt P28221)", "sequence (P28221 whole entry)": "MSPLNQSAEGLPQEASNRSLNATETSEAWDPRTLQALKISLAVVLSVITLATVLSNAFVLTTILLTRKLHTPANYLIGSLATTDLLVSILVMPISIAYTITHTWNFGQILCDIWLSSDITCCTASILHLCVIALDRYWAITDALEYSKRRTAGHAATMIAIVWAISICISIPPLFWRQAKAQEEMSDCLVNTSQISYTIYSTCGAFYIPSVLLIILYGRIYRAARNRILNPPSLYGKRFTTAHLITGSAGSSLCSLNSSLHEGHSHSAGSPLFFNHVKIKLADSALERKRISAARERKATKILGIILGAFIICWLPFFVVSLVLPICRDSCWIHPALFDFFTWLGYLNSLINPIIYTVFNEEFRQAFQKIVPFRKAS", "experiment": "Inhibition of 5HT1D receptor at 10 uM"}, "[14]": {"target": "5-hydroxytryptamine receptor 2A (Homo sapiens) (UniProt P28223)", "sequence (P28223 whole entry)": "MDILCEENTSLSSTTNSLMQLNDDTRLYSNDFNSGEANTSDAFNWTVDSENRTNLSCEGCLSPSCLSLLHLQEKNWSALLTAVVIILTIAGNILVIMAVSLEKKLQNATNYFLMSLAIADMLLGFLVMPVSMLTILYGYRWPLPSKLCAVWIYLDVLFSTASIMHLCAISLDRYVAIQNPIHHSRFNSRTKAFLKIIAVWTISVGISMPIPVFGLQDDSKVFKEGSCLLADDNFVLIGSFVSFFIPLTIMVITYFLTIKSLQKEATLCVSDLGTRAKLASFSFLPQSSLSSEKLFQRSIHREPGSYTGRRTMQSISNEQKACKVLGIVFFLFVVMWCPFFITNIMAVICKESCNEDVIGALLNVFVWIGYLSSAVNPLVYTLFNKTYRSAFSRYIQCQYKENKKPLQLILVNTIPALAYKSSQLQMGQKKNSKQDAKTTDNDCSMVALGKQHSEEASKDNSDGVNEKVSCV", "experiment": "Inhibition of 5HT2A receptor at 10 uM"}, "[15]": {"target": "5-hydroxytryptamine receptor 2B (Homo sapiens) (UniProt P41595)", "sequence (P41595 whole entry)": "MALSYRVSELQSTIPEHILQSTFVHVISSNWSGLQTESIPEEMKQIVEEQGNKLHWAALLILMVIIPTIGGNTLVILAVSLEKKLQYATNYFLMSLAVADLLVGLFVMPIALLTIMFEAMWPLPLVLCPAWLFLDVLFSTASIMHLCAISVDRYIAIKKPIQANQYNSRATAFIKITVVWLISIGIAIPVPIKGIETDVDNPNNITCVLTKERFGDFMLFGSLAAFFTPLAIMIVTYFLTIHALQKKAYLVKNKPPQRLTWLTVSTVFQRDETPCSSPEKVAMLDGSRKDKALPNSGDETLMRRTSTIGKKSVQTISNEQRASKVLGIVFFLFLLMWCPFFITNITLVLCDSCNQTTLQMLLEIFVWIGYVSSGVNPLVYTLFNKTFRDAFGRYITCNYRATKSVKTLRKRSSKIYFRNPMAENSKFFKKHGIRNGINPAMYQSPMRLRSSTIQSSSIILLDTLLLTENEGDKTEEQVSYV", "experiment": "Inhibition of 5HT2B receptor at 10 uM"}, "[16]": {"target": "T3, 5-hydroxytryptamine receptor 2C (Homo sapiens)", "experiment": "Inhibition of 5HT2C receptor at 10 uM"}, "[17]": {"target": "5-hydroxytryptamine receptor 5A (Homo sapiens) (UniProt P47898)", "sequence (P47898 whole entry)": "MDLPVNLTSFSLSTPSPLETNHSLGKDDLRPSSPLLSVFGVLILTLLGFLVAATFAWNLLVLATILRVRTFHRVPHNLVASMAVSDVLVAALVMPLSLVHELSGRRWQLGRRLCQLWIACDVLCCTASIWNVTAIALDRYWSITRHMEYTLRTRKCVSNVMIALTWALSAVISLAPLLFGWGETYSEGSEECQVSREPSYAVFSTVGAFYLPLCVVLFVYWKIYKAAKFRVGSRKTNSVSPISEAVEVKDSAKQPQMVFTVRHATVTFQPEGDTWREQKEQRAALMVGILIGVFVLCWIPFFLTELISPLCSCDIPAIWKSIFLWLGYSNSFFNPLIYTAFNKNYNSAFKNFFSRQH", "experiment": "Inhibition of 5HT5A receptor at 10 uM"}, "[18]": {"target": "5-hydroxytryptamine receptor 6 (Homo sapiens) (UniProt P50406)", "sequence (P50406 whole entry)": "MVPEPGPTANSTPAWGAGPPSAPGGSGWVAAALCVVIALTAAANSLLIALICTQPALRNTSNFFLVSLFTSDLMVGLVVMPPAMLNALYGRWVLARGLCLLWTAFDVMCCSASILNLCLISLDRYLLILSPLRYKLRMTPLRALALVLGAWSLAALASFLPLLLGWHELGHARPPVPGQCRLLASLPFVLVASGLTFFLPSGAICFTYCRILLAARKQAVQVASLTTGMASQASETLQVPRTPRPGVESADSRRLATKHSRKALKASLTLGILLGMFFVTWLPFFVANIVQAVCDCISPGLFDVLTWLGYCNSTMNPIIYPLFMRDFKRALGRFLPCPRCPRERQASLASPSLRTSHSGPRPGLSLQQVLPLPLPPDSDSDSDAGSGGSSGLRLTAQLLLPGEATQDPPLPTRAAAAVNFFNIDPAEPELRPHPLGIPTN", "experiment": "Inhibition of 5HT6 receptor at 10 uM"}, "[19]": {"target": "5-hydroxytryptamine receptor 7 (Homo sapiens) (UniProt P34969)", "sequence (P34969 whole entry)": "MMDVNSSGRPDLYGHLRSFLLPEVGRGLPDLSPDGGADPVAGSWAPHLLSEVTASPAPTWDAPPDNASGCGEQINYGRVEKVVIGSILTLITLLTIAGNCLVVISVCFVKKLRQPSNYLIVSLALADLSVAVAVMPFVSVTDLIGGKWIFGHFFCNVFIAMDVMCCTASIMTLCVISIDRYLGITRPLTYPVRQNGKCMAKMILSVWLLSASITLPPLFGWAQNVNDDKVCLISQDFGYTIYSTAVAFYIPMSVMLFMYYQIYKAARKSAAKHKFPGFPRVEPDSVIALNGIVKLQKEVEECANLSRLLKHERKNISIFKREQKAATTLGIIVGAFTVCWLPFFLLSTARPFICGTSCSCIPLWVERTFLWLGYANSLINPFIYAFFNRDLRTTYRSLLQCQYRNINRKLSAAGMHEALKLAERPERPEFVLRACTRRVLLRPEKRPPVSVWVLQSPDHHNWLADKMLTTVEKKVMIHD", "experiment": "Inhibition of 5HT7 receptor at 10 uM"}, "Cavia porcellus [20]": {"tested_on": "Cavia porcellus", "experiment": "Induction of colon longitudinal muscle contraction in sc dosed Duncan Hartley guinea pig", "assay_type": "functional, organism-based", "conditions": "Muscle tissue"}, "Rattus norvegicus [21]": {"tested_on": "Rattus norvegicus", "experiment": "Induction of 5HT4 receptor-mediated relaxation of esophagus in iv dosed anesthetized Sprague-Dawley rat by digital sonomicrometry", "assay_type": "functional"}, "Rattus norvegicus [22]": {"tested_on": "Rattus norvegicus", "experiment": "Induction of 5HT4 receptor-mediated relaxation of esophagus in intraduodenal dosed anesthetized Sprague-Dawley rat by digital sonomicrometry", "assay_type": "functional, organism-based"}, "Rattus norvegicus [23]": {"tested_on": "Rattus norvegicus", "experiment": "Induction of 5HT4 receptor-mediated relaxation of esophagus in anesthetized Sprague-Dawley rat at 3 mg/kg, intraduodenally by digital sonomicrometry", "assay_type": "functional, organism-based", "design": "dose 3 mg/kg"}, "Cavia porcellus [24]": {"tested_on": "Cavia porcellus", "experiment": "Increase in colonic transit in Duncan Hartley guinea pig colonic transit model assessed as prokinetic activity at 3 mg/kg, sc relative to vehicle treated control", "assay_type": "functional, organism-based", "design": "dose 3 mg/kg"}, "in vitro": {"experiment": "in vitro", "conditions": "rat, liver microsomes"}}, "note": "The source made the active and inactive calls. The rule behind the calls is not given here.", "data": [{"smiles": "CC(C)n1c(=O)c(C(=O)N[C@H]2C[C@H]3CC[C@@H](C2)N3C[C@@H](O)CN2CCN(S(C)(=O)=O)CC2)cc2ccccc21", "values": [{"measurement": "Ki", "setting": "[1]", "value": 12.6, "unit": "nM"}, {"measurement": "Ratio Ki", "setting": "Homo sapiens", "value": 7400}, {"measurement": "EC50", "setting": "[2]", "value": 0.398, "unit": "nM"}, {"measurement": "Intrinsic activity", "setting": "[3]", "value": 94, "unit": "%"}, {"measurement": "inhibition at 3 µM", "setting": "hERG (KCNH2)", "value": 4, "unit": "%"}, {"measurement": "Papp", "setting": "[4]", "value": 14, "unit": "×10⁻⁶ cm/s"}, {"measurement": "AUC(0-t)", "setting": "[5]", "value": 200, "unit": "ng·h/mL"}, {"measurement": "Cmax", "setting": "[6]", "value": 31, "unit": "ng/mL"}, {"measurement": "half-life", "setting": "[7]", "value": 5.2, "unit": "h"}, {"measurement": "bioavailability", "setting": "[8]", "value": 20, "unit": "%"}, {"measurement": "Cmax", "setting": "[9]", "value": 320, "unit": "ng/mL"}, {"measurement": "bioavailability", "setting": "[10]", "value": 63, "unit": "%"}, {"measurement": "inhibition", "setting": "[11]", "value": "< 50", "unit": "%"}, {"measurement": "inhibition", "setting": "[12]", "value": "< 50", "unit": "%"}, {"measurement": "inhibition", "setting": "[13]", "value": "< 50", "unit": "%"}, {"measurement": "inhibition", "setting": "[14]", "value": "< 50", "unit": "%"}, {"measurement": "inhibition", "setting": "[15]", "value": "< 50", "unit": "%"}, {"measurement": "inhibition", "setting": "[16]", "value": "< 50", "unit": "%"}, {"measurement": "inhibition", "setting": "[17]", "value": "< 50", "unit": "%"}, {"measurement": "inhibition", "setting": "[18]", "value": "< 50", "unit": "%"}, {"measurement": "inhibition", "setting": "[19]", "value": "< 50", "unit": "%"}, {"measurement": "EC50", "setting": "Cavia porcellus [20]", "value": 2.51, "unit": "nM"}, {"measurement": "Activity", "setting": "Rattus norvegicus [21]", "value": "Dose-dependent effect"}, {"measurement": "ED50", "setting": "Rattus norvegicus [21]", "value": 0.016, "unit": "mg/kg"}, {"measurement": "Activity", "setting": "Rattus norvegicus [22]", "value": "Dose-dependent effect"}, {"measurement": "Activity", "setting": "Rattus norvegicus [23]", "value": "Active"}, {"measurement": "Activity", "setting": "Cavia porcellus [24]", "value": "Active"}, {"measurement": "half-life", "setting": "in vitro", "value": "> 1.5", "unit": "h"}]}]}
